From patent publication US20230247987A1, “THE USE OF SAFENERS TO IMPROVE TOLERANCE OF ACCASE TOLERANT SORGHUM CROP TO HERBICIDES” (Adama Agan Ltd., priority 2020, published 2023)

Assays:
Assay type in all cases: in vivo
[1] = test system: ACCase tolerant sorghum variety BTX430-CHR-ACC1; test: Greenhouse crop response of ACCase tolerant sorghum to quizalofop with and without isoxadifen; conditions: FIG. 1, X-rates 0.5-8 (Quizalofop 39-616 g/ha, Isoxadifen 27-431 g/ha), rated approximately 14 days after application, versus quizalofop without isoxadifen
Excerpt: Seeds of the proprietary ACCase tolerant sorghum variety BTX430-CHR-ACC1 (ATCC deposit PTA-125106, mutation W1999C) were supplied by S&W. BTX430-CHR-ACC1 sorghum cultivar contains a single mutation in the ACCase gene that confers ACCase tolerance: Tryptophan to Cysteine amino acid substitution at an amino acid position 1999 (W1999C; SEQ ID NO: 7 as disclosed in WO 2018/222715, namely the sequence denoted herein by SEQ ID NO: 6) aligning with the amino acid sequence of SEQ ID NO: 6 (as disclosed in WO 2018/222715, namely the sequence denoted herein by SEQ ID NO: 5). The mutation provides tolerance to quizalofop.
ACCase tolerant Sorghum seeds (S & W Line ID: T19-90001) were planted in commercial greenhouse soil mix in ˜8-cm square pots.
Plants were started in a greenhouse and placed outdoors at ambient air temperatures when temperatures were conducive to sorghum growth.
Soil fertility and moisture were provided on an as needed basis.
Plants were grown to heights of 10 to 13, 15-18, 20 to 25 and 30 to 35 cm for treatment.
Safener was premixed in the ADM.7000.H.2.A formulation.
Sorghum plants were subjected to “Standard Weed Science Percentage Rankings” where 0=no effect of the herbicide and 100%=complete plant death. Injury represents discoloration, stunting and malformation. Ratings were taken approximately 14 days after herbicide application. […]

[2] = test system: shattercane (Sorghum bicolor); test: Field trial: control of shattercane; conditions: after 7 days
Setaria viridis = test: Field trials: control of Setaria viridis
Panicum miliace = test: Field trials: control of Panicum miliace
[3] = Table 4 trial, after 33 days, X-rate 0.5: Quizalofop 5 oz/a, Isoxadifen 5 oz/a or none
[4] = Table 4 trial, after 33 days, X-rate 1: Quizalofop 10 oz/a, Isoxadifen 10 oz/a or none
[5] = Table 4 trial, after 33 days, X-rate 2: Quizalofop 20 oz/a, Isoxadifen 20 oz/a or none
[6] = Table 5 second trial, after 27 days, X-rate 0.5: Quizalofop 5 oz/a, Isoxadifen 5 oz/a or none
[7] = Table 5 second trial, after 27 days, X-rate 1: Quizalofop 10 oz/a, Isoxadifen 10 oz/a or none
[8] = Table 5 second trial, after 27 days, X-rate 2: Quizalofop 20 oz/a, Isoxadifen 20 oz/a or none

O=C(O)C1=NOC(c2ccccc2)(c2ccccc2)C1 [isoxadifen]
crop response (percentage of sorghum crop displaying phytotoxicity) against the X-Rate [1]: significant decrease of crop response

CCOC(=O)[C@@H](C)Oc1ccc(Oc2cnc3cc(Cl)ccc3n2)cc1 [Quizalofop, quizalofop P-ethyl]
% control Shattercane ([2]; X-rate 0.5: Quizalofop 5 oz/a, Isoxadifen 5 oz/a or none): 96.8%
% control Shattercane ([2]; X-rate 1: Quizalofop 10 oz/a, Isoxadifen 10 oz/a or none): 96.8%
% control Shattercane ([2]; X-rate 2: Quizalofop 20 oz/a, Isoxadifen 20 oz/a or none): 99%
% control Setaria viridis (Setaria viridis; [3]): 100%
% control Setaria viridis (Setaria viridis; [4]): 100%
% control Setaria viridis (Setaria viridis; [5]): 100%
% control Setaria viridis (Setaria viridis; [6]): 100%
% control Setaria viridis (Setaria viridis; [7]): 100%
% control Setaria viridis (Setaria viridis; [8]): 100%
% control Panicum miliace (Panicum miliace; [3]): 100%
% control Panicum miliace (Panicum miliace; [4]): 100%
% control Panicum miliace (Panicum miliace; [5]): 100%
% control Panicum miliace (Panicum miliace; [6]): 100%
% control Panicum miliace (Panicum miliace; [7]): 100%
% control Panicum miliace (Panicum miliace; [8]): 100%
